Data on 1 compound can be found in BindingDB's records for doi:10.1124/jpet.104.067884 (Sanofi-Synthelabo Recherche, 2004).

One test deals with Cannabinoid receptor 1 (Homo sapiens, UniProt P21554).
The target in the next test is Cannabinoid receptor 2 (Homo sapiens, UniProt P34972).
Chain of Cannabinoid receptor 2 (P34972 whole entry): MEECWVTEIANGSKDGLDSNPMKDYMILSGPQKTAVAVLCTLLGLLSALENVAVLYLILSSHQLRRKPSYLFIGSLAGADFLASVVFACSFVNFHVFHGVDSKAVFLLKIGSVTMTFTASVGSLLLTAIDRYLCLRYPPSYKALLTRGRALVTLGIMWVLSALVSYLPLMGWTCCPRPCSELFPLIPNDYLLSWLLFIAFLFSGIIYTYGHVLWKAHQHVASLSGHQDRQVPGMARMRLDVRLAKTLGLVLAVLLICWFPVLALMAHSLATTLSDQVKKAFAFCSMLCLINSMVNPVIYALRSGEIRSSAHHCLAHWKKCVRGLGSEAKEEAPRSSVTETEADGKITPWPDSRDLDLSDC

Chain of Cannabinoid receptor 1 (P21554 whole entry): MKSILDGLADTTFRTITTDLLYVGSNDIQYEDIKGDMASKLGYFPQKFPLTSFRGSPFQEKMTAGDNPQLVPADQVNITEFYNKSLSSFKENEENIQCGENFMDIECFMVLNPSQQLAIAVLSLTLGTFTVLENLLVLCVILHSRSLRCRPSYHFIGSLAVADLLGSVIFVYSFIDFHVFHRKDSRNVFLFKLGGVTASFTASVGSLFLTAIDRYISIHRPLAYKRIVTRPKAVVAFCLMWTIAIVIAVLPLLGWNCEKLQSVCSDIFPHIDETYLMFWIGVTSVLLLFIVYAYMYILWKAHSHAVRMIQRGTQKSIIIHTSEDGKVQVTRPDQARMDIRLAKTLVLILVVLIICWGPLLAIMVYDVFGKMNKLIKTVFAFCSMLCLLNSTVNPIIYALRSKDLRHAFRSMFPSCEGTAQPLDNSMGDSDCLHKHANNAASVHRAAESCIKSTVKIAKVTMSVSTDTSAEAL

By Ki is commonly meant a measure of affinity in units of concentration, obtained from inhibition or displacement. Regarding `CCc1c(C(=O)NN2CCCCC2)nn(-c2ccc(Cl)cc2Cl)c1-c1ccc(Br)cc1` [SR 147778], the Ki on Cannabinoid receptor 1 came to 3.5 nM; on Cannabinoid receptor 2 it was 442 nM.
